Results as given in paper PMC6642116, “Structural and functional analyses of hepatitis B virus X protein BH3-like domain and Bcl-xL interaction” (Nature Communications, 2019).

Columns and labels:
[1] = tested on: HBV DNA in HepG2.2.15 cells; test: HBV DNA replication in HepG2.2.15 cells treated with ABT-263 or ABT-737; assay type: cell-based; conditions: for HBV DNA: 2 days; for inhibition of HBV DNA replication (in words): 125-1000 nM, 48 h
Procedure: (§1) Fig. 6 The HBx-aa118–127 peptide, but not ABT-263, inhibits HBV replication and transcription in HepG2.2.15 cells. a HepG2.2.15 cells were treated with 125, 250, 500, and 1000 nM of ABT-263 for 2 days. Cytoplasmic HBV viral particles were isolated and the viral DNA replication intermediates were quantified (Methods). The results represent the fold change of the replicative intermediates in HepG2.2.15 cells from the indicated treatments, compared with those without treatment. b HepG2.2.15 cells were treated with the indicated concentrations of ABT-263 for 2 days. The lysate was analyzed by immunoblotting using antibodies to caspase-3 (CASP3) and GAPDH (glyceraldehyde 3-phosphate dehydrogenase). c, d The HBx-aa113–135, HBx-aa118–127, or the control peptides were delivered into HepG2.2.15 cells using PEP-1 nanoparticles (Methods). The levels of HBV DNA (c) and the levels of HBV S-antigen (HBsAg) expression (d) in culture medium collected from HepG2.2.15 cells were measured (Methods). The results are shown as fold change compared to that of the control peptide. e–g HepG2-NTCP cells were transfected with HBx118–127 peptide with concentration of […], and 50 μg/ml or unrelated control peptide during HBV infection (multiplicity of infection (MOI) = 200), respectively. e HBV e-antigen (HBeAg), f HBV DNA, and g cell viability were measured at day 8 after HBV infection. Data shown represent mean ± SD. Significance is indicated on the top. Not significant (ns): *P < 0.05, **P < 0.01; two-tailed unpaired t tests (n = 3 biologically independent samples). Source data are provided as a Source Data file […]
ABT-263 and ABT-737, the picomolar BH3 mimetics, were purchased from Apexbt Technology LLC (Houston, TX, USA). HepG2.2.15 cells were treated with 125, 250, 500, and 1000 nM of ABT-263 or ABT-737 for 48 h. Cytoplasmic HBV viral particles and HBV DNA were then isolated for quantification.
ABT-263 or ABT-737 for two days. Cytoplasmic HBV viral particles were isolated and the viral DNA replication intermediates were quantified by real-time PCR using a specific primer set targeting HBS ORF (Materials and Methods). The results represent the fold change of the replicative intermediates in HepG2.2.15 cells from the indicated treatments, compared with those without treatment. b HepG2.2.15 cells were treated with the indicated concentrations of ABT-263 or ABT-737 for two days. The lysate was analyzed by immunoblotting using antibodies to Caspase-3 (CASP3) and GAPDH.
Data shown represent mean ± SD. Significance is indicated on the top. Not significant (ns): P > 0.05; two-tailed unpaired t-tests. Source data are provided as a Source Data […]
(1 picture or pasted object on this page, not shown here)

caspase-3 (CASP3) = test: Caspase-3 proteolytic activation in HepG2.2.15 cells (immunoblot); assay type: cell-based; conditions: HepG2.2.15, 2 days
Procedure: as §1, with “infection.” for “infection. Data shown represent mean ± SD. Significance is indicated on the top. Not significant (ns): *P < 0.05, **P < 0.01; two-tailed unpaired t tests (n = 3 biologically independent samples). Source data are provided as a Source Data file”

Bcl-xL = target: T1, Bcl-xL (Homo sapiens, UniProt Q07817, DEL27-82); conditions: cited from earlier work
T1 construct: 6xHis-SUMO (N, cleaved yes); made in house; host or cells: Escherichia coli BL21(DE3)

HBV in HepG2.2.15 cells = test: Combination of HBx118–127 and ABT-263 on HBV in HepG2.2.15 cells; assay type: cell-based; conditions: ABT-263 1 μM, HBx118–127 via PEP-1; for HBV DNA: HepG2.2.15 culture medium, 48 h in total; for HBV DNA / HBeAg in culture medium / HBsAg in culture medium / Intracellular HBcAg: sequential: ABT-263 12 h then HBx118–127 36 h; for HBeAg in culture medium / HBsAg in culture medium / Intracellular HBcAg: HepG2.2.15, 48 h in total
Procedure: In all panels, from left to right (bars 1–5), cells were treated with placebo buffer, HBx118–127 only, ABT-263 only, HBx118–127 and ABT-263 together, and ABT-263, followed by HBx118–127, respectively. The cells in bars 1–4 were treated for 48 h, whereas the cells in bar 5 were first treated by ABT-263 for 12 h, followed by treatment with HBx118–127 for another 36 h. The final concentration of ABT-263 was 1 μM in the culture medium, while HBx-aa118–127 was delivered by PEP-1 nanoparticles. After 48-h treatment, the protein expression levels of HBV S-antigen (HBsAg) (a) and HBV e-antigen (HBeAg) (b) in the culture medium, the intracellular protein expression level of HBV core antigen (HBcAg) (c), and the HBV viral DNA tilter (d) in the culture medium of HepG2.2.15 cells were measured (Methods). The results are shown as fold changes compared to the values obtained from the cells treated with the placebo buffer. Data shown represent mean ± SD. Significance is indicated on the top. Not significant (ns): *P < 0.05, **P < 0.01, ***P < 0.001; two-tailed unpaired t tests (n = 3 biologically independent samples). Source data are provided as a Source Data file
The levels of HBsAg, HBeAg, and HBcAg expression were measured by chemiluminescence, using Commercial Assay Kit (Wantai, Beijing, China). Northern blot analysis of HBV RNA, Southern blot analysis of HBV DNA, and real-time PCR quantification of HBV DNA are described in the Supplementary Methods.

T1 sequence (Q07817 with tags, fused parts or gaps DEL27-82 limits assumed): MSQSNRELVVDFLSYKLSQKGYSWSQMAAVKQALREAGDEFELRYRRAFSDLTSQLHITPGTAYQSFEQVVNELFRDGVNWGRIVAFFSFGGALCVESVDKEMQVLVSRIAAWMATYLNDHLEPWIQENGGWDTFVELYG

Structure (SMILES)	HBV DNA ([1]; 125 nM, replicate 1)	HBV DNA ([1]; 125 nM, replicate 2)	HBV DNA ([1]; 125 nM, replicate 3)	HBV DNA ([1]; 250 nM, replicate 1)	HBV DNA ([1]; 250 nM, replicate 2)	HBV DNA ([1]; 250 nM, replicate 3)	HBV DNA ([1]; 500 nM, replicate 1)	HBV DNA ([1]; 500 nM, replicate 2)	HBV DNA ([1]; 500 nM, replicate 3)	HBV DNA ([1]; 1000 nM, replicate 1)	HBV DNA ([1]; 1000 nM, replicate 2)	HBV DNA ([1]; 1000 nM, replicate 3)	inhibition of HBV DNA replication (in words) [1]	proteolytic activation of caspase-3 (in words) (caspase-3 (CASP3))	reported Bcl-xL inhibitor potency (in words) (Bcl-xL)	other results
CN(C)CC[C@H](CSc1ccccc1)Nc1ccc(S(=O)(=O)NC(=O)c2ccc(N3CCN(Cc4ccccc4-c4ccc(Cl)cc4)CC3)cc2)cc1[N+](=O)[O-] [ABT-737]	1.000 fold change to non-treatment	0.986 fold change to non-treatment	0.979 fold change to non-treatment	1.110 fold change to non-treatment	1.035 fold change to non-treatment	1.007 fold change to non-treatment	0.953 fold change to non-treatment	1.000 fold change to non-treatment	1.021 fold change to non-treatment	0.993 fold change to non-treatment	1.021 fold change to non-treatment	1.021 fold change to non-treatment	did not inhibit HBV DNA replication	induced significant proteolytic activation of caspase-3	picomolar	–
CC1(C)CCC(c2ccc(Cl)cc2)=C(CN2CCN(c3ccc(C(=O)NS(=O)(=O)c4ccc(N[C@H](CCN5CCOCC5)CSc5ccccc5)c(S(=O)(=O)C(F)(F)F)c4)cc3)CC2)C1 [ABT-263]	0.966 fold change to non-treatment	1.035 fold change to non-treatment	1.028 fold change to non-treatment	1.021 fold change to non-treatment	0.966 fold change to non-treatment	0.946 fold change to non-treatment	1.021 fold change to non-treatment	0.973 fold change to non-treatment	0.966 fold change to non-treatment	1.000 fold change to non-treatment	0.940 fold change to non-treatment	0.940 fold change to non-treatment	did not inhibit HBV DNA replication	induced significant proteolytic activation of caspase-3	picomolar	HBV DNA (HBV in HepG2.2.15 cells; replicate 1): 1.089 fold-change to control; HBV DNA (HBV in HepG2.2.15 cells; replicate 2): 1.052 fold-change to control; HBV DNA (HBV in HepG2.2.15 cells; replicate 3): 0.924 fold-change to control; HBeAg in culture medium (HBV in HepG2.2.15 cells; replicate 1): 1.047 fold-change to control; HBsAg in culture medium (HBV in HepG2.2.15 cells; replicate 1): 0.956 fold-change to control; Intracellular HBcAg (HBV in HepG2.2.15 cells; replicate 1): 0.979 fold-change to control; HBeAg in culture medium (HBV in HepG2.2.15 cells; replicate 2): 0.911 fold-change to control; HBsAg in culture medium (HBV in HepG2.2.15 cells; replicate 2): 0.938 fold-change to control; Intracellular HBcAg (HBV in HepG2.2.15 cells; replicate 2): 0.909 fold-change to control; HBeAg in culture medium (HBV in HepG2.2.15 cells; replicate 3): 0.937 fold-change to control; HBsAg in culture medium (HBV in HepG2.2.15 cells; replicate 3): 0.832 fold-change to control; Intracellular HBcAg (HBV in HepG2.2.15 cells; replicate 3): 0.921 fold-change to control; effect on HBV replication (in words) (HBV in HepG2.2.15 cells; HepG2.2.15): did not affect HBV replication
